Patent US12655150B2 (Cedilla Therapeutics, Inc., priority 2021, dated 2026)

How the values were obtained:
[1] = system: EGFR-mutant NSCLC PC-9 cells; assay: Apoptosis (caspase 3/7, IncuCyte) in combination with EGFR inhibitor; assay type: cell-based; conditions: apoptotic index
Procedure: Apoptosis was detected by CellEvent Caspase 3/7 Green ReadyProbes Reagent (ThermoFisher), a fluorogenic indicator of activated caspase-3/7. Cell death (apoptsis) and cell growth (phase confluence) over time were captured by IncuCyte live cell imaging system (Essen Bioscience) and quantified by IncuCyte S3 software (Essen Bioscience). Apoptotic Index was calculated by dividing apoptosis signal with phase confluence.

NCI-H226 = assay: 72H TEAD Proliferation Assay (Cell Titer Glo 2.0); assay type: cell-based; conditions: Homo sapiens, NCI-H226, 72 h, CTG 2.0, cell line not given (NCI-H226 responsive, NCI-H28 non-responsive)
Method in brief: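 Growth read-out is ATP luminescence (CellTiter-Glo 2.0) after 72 h compound exposure, corrected for no-CTG background and day-0 values, with GI50 from nonlinear regression. Sensitive line NCI-H226 (NF2-deficient); non-responsive NCI-H28 (NF2 wild type) distinguishes TEAD-driven from nonspecific growth inhibition.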

| GI50 (NCI-H226) | Structure (SMILES) | also measured |
| --- | --- | --- |
| ≤ 1 µM | COc1cc(-c2ccc(C(F)(F)F)cc2)nc2cc(C(=O)N[C@@H](CO)c3ccccn3)ccc12 [I-365, (R)—N-(2-hydroxy-1-(pyridin-2-yl)ethyl)-4-methoxy-2-(4-(trifluoromethyl)phenyl)quinoline-7-carboxamide] |  |
| > 10 µM | CC(C)(C)c1ccc(-c2nc(/C=C/c3nnn[nH]3)cn3ccnc23)cc1 [I-155, (E)-6-(2-(1H-tetrazol-5-yl)vinyl)-8-(4-(tert-butyl)phenyl)imidazo[1,2-a]pyrazine] |  |
| 5 to 10 µM | CC(C)(C)c1ccc(-c2nc3cc(-c4nnc(N)o4)ccc3n3cccc23)cc1 [I-189, 5-(4-(4-(tert-butyl)phenyl)pyrrolo[1,2-a]quinoxalin-7-yl)-1,3,4-oxadiazol-2-amine] |  |
| ≤ 1 µM | C=CC(=O)Nc1ccc2c(c1)nc(-c1ccc(C(F)(F)F)cn1)c1nccn12 [I-312, N-(4-(5-(trifluoromethyl)pyridin-2-yl)imidazo[1,2-a]quinoxalin-7-yl)acrylamide] |  |
| 5 to 10 µM | CC(C)(C)c1ccc(-c2nc3cc(C(=O)NCCOCCOCCN)ccc3n3cccc23)cc1 [I-385, N-(2-(2-(2-Aminoethoxy)ethoxy)ethyl)-4-(4-(tert-butyl)phenyl)pyrrolo[1,2-a]quinoxaline-7-carboxamide] |  |
| 1 to 5 µM | CC(C)(C)c1ccc(-c2nc(/C=C/C#N)cn3ccnc23)cc1 [I-154, (E)-3-(8-(4-(tert-Butyl)phenyl)imidazo[1,2-a]pyrazin-6-yl)acrylonitrile] |  |
| ≤ 1 µM | COc1cc(-c2ccc(C(F)(F)F)cc2)nc2cc(C(=O)N[C@H](C)CO)ccc12 [I-324, (R)—N-(1-hydroxypropan-2-yl)-4-methoxy-2-(4-(trifluoromethyl)phenyl)quinoline-7-carboxamide] |  |
| ≤ 1 µM | C=CC(=O)NCc1cn2c(F)cnc2c(-c2ccc(C(F)(F)F)cc2)n1 [I-235, N-((3-fluoro-8-(4-(trifluoromethyl)phenyl)imidazo[1,2-a]pyrazin-6-yl)methyl)acrylamide] |  |
| 1 to 5 µM | CN(C)CC(=O)Nc1ccc2c(c1)nc(-c1ccc(C(C)(C)C)cc1)c1cccn12 [I-205, N-(4-(4-(tert-butyl)phenyl)pyrrolo[1,2-a]quinoxalin-7-yl)-2-(dimethylamino)acetamide] |  |
| 1 to 5 µM | COc1cc(-c2ccc(C(F)(F)F)cc2)nc2cc(C(=O)NC(C)(C)CO)ccc12 [I-352, N-(1-hydroxy-2-methylpropan-2-yl)-4-methoxy-2-(4-(trifluoromethyl)phenyl)quinoline-7-carboxamide] |  |
| 5 to 10 µM | COc1cc(-c2ccc(C(F)(F)F)cc2)nc2cc(C(=O)N[C@@H](C)c3cccc(C(=O)O)c3)ccc12 [I-347, (S)-3-(1-(4-methoxy-2-(4-(trifluoromethyl)phenyl)quinoline-7-carboxamido)ethyl)benzoic acid] |  |
| ≤ 1 µM | O=C(/C=C/CF)NCc1cn2c(F)cnc2c(-c2ccc(C(F)(F)F)cc2)n1 [I-249, (E)-4-Fluoro-N-((3-fluoro-8-(4-(trifluoromethyl)phenyl)imidazo[1,2-a]pyrazin-6-yl)methyl)but-2-enamide] |  |
| 1 to 5 µM | Cc1nc(-c2ccc(C(F)(F)F)cc2)nc2cc(C(=O)O)ccc12 [I-435, 4-methyl-2-(4-(trifluoromethyl)phenyl)quinazoline-7-carboxylic acid] |  |

Second part, the molecule before the results:

| Structure (SMILES) | GI50 (NCI-H226) | also measured |
| --- | --- | --- |
| C=CC(=O)Nc1cc(Nc2nccc(-c3cn(C)c4ccccc34)n2)c(OC)cc1N(C)CCN(C)C [Osimertinib, reference compound] |  | Fold Change over DMSO at 48 hrs ([1]; Osimertinib (100 nM) alone): 2.6 |
| C=CC(=O)Nc1ccc2c(c1)nc(-c1ccc(C(F)(F)F)cc1F)c1nccn12 [I-133, N-(4-(2-Fluoro-4-(trifluoromethyl)phenyl)imidazo[1,2-a]quinoxalin-7-yl)acrylamide] | ≤ 1 µM |  |
| C=CC(=O)Nc1ccc2ncc(-c3ccc(C(C)(C)C)cc3)nc2c1 [I-92, N-(3-(4-(tert-butyl)phenyl)quinoxalin-6-yl)acrylamide] | 1 to 5 µM |  |
| CC1(C)CC2(CCN(c3nc4cc(C(=O)O)ccc4n4cccc34)CC2)CO1 [I-34, 4-(3,3-Dimethyl-2-oxa-8-azaspiro [4.5]decan-8-yl) pyrrolo[1,2-a] quinoxaline-7-carboxylic acid] | > 10 µM |  |
| O=C(O)c1ccc2c(c1)nc(N1CCN(C3CC3)CC1)c1cccn12 [I-40, 4-(4-Cyclopropylpiperazin-1-yl) pyrrolo[1,2-a]quinoxaline-7-carboxylic acid] | 1 to 5 µM |  |
| COc1cnc(-c2ccc(C(C)(C)C)cc2)c2nccn12 [I-150, 8-(4-(tert-Butyl)phenyl)-5-methoxyimidazo[1,2-a]pyrazine] | > 10 µM |  |
| C=CC(=O)n1ccc2c(-c3ccc(C(C)(C)C)cc3)nccc21 [I-105, 1-(4-(4-(tert-Butyl)phenyl)-1H-pyrrolo[3,2-c]pyridin-1-yl)prop-2-en-1-one] | 1 to 5 µM |  |
| CNC(=O)c1cn2ccnc2c(-c2ccc(C(C)(C)C)cc2)n1 [I-143, 8-(4-(tert-Butyl)phenyl)-N-methylimidazo[1,2-a]pyrazine-6-carboxamide] | > 10 µM |  |
| CC(C)(C)c1ccc(-c2nc3cc(C(=O)O)ccc3n3cccc23)cc1 [I-41, 4-(4-(tert-butyl)phenyl)pyrrolo[1,2-a]quinoxaline-7-carboxylic acid] | ≤ 1 µM | Fold Change over DMSO at 48 hrs ([1]; I-41 (10 μM) alone): 1.1; Fold Change over DMSO at 48 hrs ([1]; Osimertinib (100 nM) + I-41 (0.37 μM)): 4.3; Fold Change over DMSO at 48 hrs ([1]; Osimertinib (100 nM) + I-41 (1.1 μM)): 4.9; Fold Change over DMSO at 48 hrs ([1]; Osimertinib (100 nM) + I-41 (10 μM)): 5.5 |
| O=C(O)c1ccc2c(c1)nc(Oc1cccc(C(F)(F)F)c1)c1cccn12 [I-24, 4-(3-(Trifluoromethyl)phenoxy) pyrrolo[1,2-a] quinoxaline-7-carboxylic acid] | 1 to 5 µM |  |
| O=C(O)c1ccc2c(c1)nc(N1CCC(c3ccccc3)CC1)c1cccn12 [I-13, 4-(4-Phenylpiperidin-1-yl)pyrrolo[1,2-a]quinoxaline-7-carboxylic acid] | > 10 µM |  |
